Converted amounts (≈) assume the structure as drawn. Positions of bridges follow the written chain, without caps; N, C: chain ends. Non-standard residues stand in square brackets, D forms with d. Residues, ends and D or L forms follow the SMILES beside them. Groups on a side chain read outwards from the residue. Chains are numbered I, II in the order given. *: point of attachment. Decanoyl = CCCCCCCCCC(=O)*; Dab = NCC[C@H](N)C(=O)O
How the values were obtained:
[1] = tested on: Pseudomonas aeruginosa (strain PA01); assay: microbe, parasite or virus in culture; format: cell-based; settings: strain
Procedure, shortened: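 Broth microdilution MIC against P. aeruginosa PAO1 in LB: peptides serially diluted by ⅔, bacteria added at OD600 0.001 and incubated 18–24 h at 37 °C. MTT added; MIC is the lowest concentration preventing visible growth.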

[2] = tested on: Bacillus subtilis (strain BR151); format: cell-based; settings: strain BR151
Procedure, shortened: (§1)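 Broth microdilution MIC in LB; overnight cultures diluted to OD600 0.001 and mixed 1:1 with ⅔-serially diluted samples (stock 1 mg mL^−1 in H2O), 37° C for 18-24 h. MTT (0.1%) added; MIC read by eye as lowest concentration inhibiting visible growth (yellow).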

[3] = tested on: Escherichia coli (strain DH5α); format: cell-based; settings: DH5α
Procedure, shortened: as §1

[4] = tested on: P. aeruginosa PEJ2.6, PEJ9.1, ZEM1.A, ZEM9.A (clinical isolates); format: cell-based, Pseudomonas aeruginosa; settings: PEJ2.6, PEJ9.1, ZEM1.A, ZEM9.A (clinical isolates)
Method: (§2) Antimicrobial activity was assayed against P. aeruginosa PA01 (WT), P. aeruginosa PT1482 (A-), PT1485 (A-B-), PT1149 (A-B-C-algC), PT331 (Z61) (LPS mutants), P. aeruginosa PEJ2.6, PEJ9.1, ZEM1.A, ZEM9.A (clinical isolates from Université de Genève/Centre Médical Universitaire), Burkholderia cenocepacia (B. ceno), Staphylococcus aureus (S. aureus, MRSA strain) and Acinetobacter baumannii (A. baum) (clinical isolates from Université de Genève/Centre Médical Universitaire). To determine the minimal inhibitory concentration (MIC), microdilution broth method was used. A colony of bacteria was grown in MH-medium overnight at 37° C. The samples were prepared as stock solutions of 8 mg mL^−1 in H2O, diluted to the beginning concentration of 32, 64, 128 or 256 μg/mL in 300 μL MH-medium, added to the first well of 96-well microtiterplate (TPP, untreated) and diluted serially by ½. The concentration of the bacteria was quantified by measuring absorbance at 600 nm and diluted to OD600=0.022 in MH-medium. The sample solutions (150 μL) were mixed with 4 μL diluted bacterial suspension with a final inoculation of about of 5×10^5 CFU. The plates were incubated at 37° C. until satisfactory growth (˜18 h). For each test, two columns of the plate were kept for sterility control (SC, broth only) and growth control (GC, broth with bacterial inoculums, no antibiotics). The minimal inhibitory concentration (MIC) was defined as the lowest concentration of the antimicrobial substance (peptide dendrimer) that inhibited visible growth of the tested bacteria with the unaided eye. For microbiological study Polymyxin was used as references.
(§3) Ten of the most promising compounds (FIG. 5) were tested for their efficiency against four clinical isolates of P. aeruginosa (ZEM9.A, ZEM1.A, PEJ2.6, PEJ9.1), one S. aureus (COL, MRSA reference strain) and one A. baumannii strain. For the experiments in Genève the peptide dendrimers and reference compounds (polymyxin) were dissolved in PBS and the assay was carried out in Müller-Hinton (MH) broth with a two-fold dilution.

[5] = tested on: P. aeruginosa PT1482 (A-), PT1485 (A-B-), PT1149 (A-B-C-algC), PT331 (Z61) (LPS mutants); format: cell-based, Pseudomonas aeruginosa; settings: MH medium, 12-18 h
Method: as §2

P. aeruginosa PA01 (WT) = format: cell-based, Pseudomonas aeruginosa; settings: WT
Method: as §2

male wistar rats = assay: In-vivo toxicity study, single i.v. injection; parameters: species or system rat
Excerpt: 4-6 weeks old male wistar rats (weight range 200-500 g) were used in toxicity experiments. Rats were obtained from Zentrale Tierställe Bern (Department of Clinical Research from University of Bern) and housed 4 per cage. Each experimental group includes two rats. All procedures, care and handling of the animals were reviewed and approved by the Veterinärdienst of Kanton Bern, Schweiz and execute in collaboration with the group of Prof. Hugues Abriel from Department of Clinical Research from University of Bern.
Rats were anesthetized with 4% isoflurane and 1 L/min oxygen in an induction chamber. When the rats were sleeping they were transferred on a clinical drape and anesthetized with 1-2% isoflurane and 0.8 l/min oxygen via a mask. The tail was warmed up with warm water and disinfected with 70% ethanol. The intravenous (i.v.) injections into the tail vein included a single dose of the AMPD of 2 mg/kg rat in 500 μL PBS. Before injection each rat was weighted individually and the exact dosage was determined. All rats, including control groups with no injection and i.v. injection of 500 μL PBS, were monitored for their survival and behavior for two days.
The compounds MSt-112, a 3rd generation AMPD with KL motive, MSt-181 its D-enantiomer analogue, MSt-242, a the 3rd generation with RL motive, and MSt-114 with Tyr instead of Lys in the 3rd generation were used for in vivo experiments with male wistar rats to assess their toxicity. These compounds were selected due to their high potencies and high MHCs values, which are at least 10 times higher than their activities. Each compound (concentration of 2 mg/kg) was applied to two rats by intravenous injection into the tail vein to observe if the AMPDs are well tolerated or may cause adverse effects. The concentration used was approx. 5-10 times higher than the MICs. […] The behaviour of the rats was normal. […] Therefore it seems that rats tolerate AMPDs very well, without visible site effects or even casualties.

[6] = tested on: Staphylococcus aureus (COL, MRSA reference strain); format: cell-based; settings: COL, reference strain
Method: as §2, §3

Acinetobacter baumannii = format: cell-based
Method: as §2, §3

PAO1 = format: cell-based, Pseudomonas aeruginosa; settings: PAO1
Method: as §2

SMILES	MIC P. aeruginosa PAO1 [1] [µg/mL]	MIC B. subtilis BR151 [2] [µg/mL]	MIC E. coli DH5α [3] [µg/mL]	MIC P. aeruginosa MDR clinical isolate PEJ2.6 [4] [µg/mL]	MIC P. aeruginosa MDR clinical isolate PEJ9.1 [4] [µg/mL]	MIC P. aeruginosa MDR clinical isolate ZEM1A [4] [µg/mL]	MIC P. aeruginosa MDR clinical isolate ZEM9A [4] [µg/mL]	MIC PT1482 (A-) [5] [µg/mL]	MIC PT1485 (AB-) [5] [µg/mL]	MIC (MH) (P. aeruginosa PA01 (WT)) [µg/mL]	MIC PAO1 (P. aeruginosa PA01 (WT)) [µg/mL]	visible effects and behaviour after injection (male wistar rats; 2 mg/kg single i.v. dose into tail vein, two rats)	survival rate (male wistar rats; 2 mg/kg single i.v. dose, monitored 2 days) [%]	MIC S. aureus COL [6] [µg/mL]	MIC A. baumannii ATCC19606 (Acinetobacter baumannii) [µg/mL]	MIC (MH + 30% human serum) (PAO1) [µg/mL]
CC(C)C[C@H](NC(=O)[C@H](CCCCN)NC(=O)[C@H](CCCCNC(=O)[C@H](CC(C)C)NC(=O)[C@H](CCCCN)NC(=O)[C@H](CCCCNC(=O)[C@H](CC(C)C)NC(=O)[C@H](CCCCN)NC(=O)[C@H](CCCCNC(=O)[C@H](CC(C)C)NC(=O)[C@@H](N)CCCCN)NC(=O)[C@H](CC(C)C)NC(=O)[C@@H](N)CCCCN)NC(=O)[C@H](CC(C)C)NC(=O)[C@H](CCCCN)NC(=O)[C@H](CCCCNC(=O)[C@H](CC(C)C)NC(=O)[C@@H](N)CCCCN)NC(=O)[C@H](CC(C)C)NC(=O)[C@@H](N)CCCCN)NC(=O)[C@H](CC(C)C)NC(=O)[C@H](CCCCN)NC(=O)[C@H](CCCCNC(=O)[C@H](CC(C)C)NC(=O)[C@H](CCCCN)NC(=O)[C@H](CCCCNC(=O)[C@H](CC(C)C)NC(=O)[C@@H](N)CCCCN)NC(=O)[C@H](CC(C)C)NC(=O)[C@@H](N)CCCCN)NC(=O)[C@H](CC(C)C)NC(=O)[C@H](CCCCN)NC(=O)[C@H](CCCCNC(=O)[C@H](CC(C)C)NC(=O)[C@@H](N)CCCCN)NC(=O)[C@H](CC(C)C)NC(=O)[C@@H](N)CCCCN)C(N)=O [MSt-112, (KL)8(KKL)4(KKL)2(KKL)] (I: H-KLK([Leu-Lys])KLKKLKKL-NH2 / II: H-KLK([Leu-Lys])KLKKL / III: H-KLK([Leu-Lys])KL / IV: H-KLK([Leu-Lys])KL; amide I:6-IV:C, I:9-II:C, II:6-III:C)	2 (≈ 0.441 µM)	3 (≈ 0.662 µM)	4 (≈ 0.882 µM)	16 (≈ 3.53 µM)	64 (≈ 14.1 µM)	4 (≈ 0.882 µM)	32 to 64	4 (≈ 0.882 µM)	4 (≈ 0.882 µM)	4 (≈ 0.882 µM)	4 (≈ 0.882 µM)	No visible effect	100	>64	8 to 16	
CCCCCCCCCC(=O)NCCCC[C@H](NC(=O)[C@H](CC(C)C)NC(=O)[C@H](CCCCN)NC(=O)[C@H](CCCCNC(=O)[C@H](CC(C)C)NC(=O)[C@H](CCN)NC(=O)[C@H](CCCCNC(=O)[C@H](Cc1ccccc1)NC(=O)[C@@H](N)CCCNC(=N)N)NC(=O)[C@H](Cc1ccccc1)NC(=O)[C@@H](N)CCCNC(=N)N)NC(=O)[C@H](CC(C)C)NC(=O)[C@H](CCN)NC(=O)[C@H](CCCCNC(=O)[C@H](Cc1ccccc1)NC(=O)[C@@H](N)CCCNC(=N)N)NC(=O)[C@H](Cc1ccccc1)NC(=O)[C@@H](N)CCCNC(=N)N)C(N)=O [TNS-124, (RF)4(KDabL)2(KKLK-CO(CH2)8CH3)] (I: H-RFK([Phe-Arg])[Dab]LKKLK(Decanoyl)-NH2 / II: H-RFK([Phe-Arg])[Dab]L; amide I:6-II:C; N-terminus assumed)				8 (≈ 3.12 µM)	32 (≈ 12.5 µM)	4 to 8	16 to 32			4 to 8	8 (≈ 3.12 µM)			8 (≈ 3.12 µM)	8 to 16	16 to 32
